Test results: patent US11147795B2, “Neuroprotective compounds and methods of use” (ARIZONA BOARD OF REGENTS ON BEHALF OF THE UNIVERSITY OF …, priority 2014, dated 2021)

System: larvae expressing TDP-43 in motor neurons
Test: Larval turning assay (locomotor function)
Assay type: in vivo, Drosophila
Details: for locomotor function measured by larval turning assays: TDP-43 expressed in motor neurons, FIGS. 1-3; for locomotor function: Student's t-test, N>20 larvae/genotype
Method: Drosophila genetics. TDP-43 was expressed in motor neurons using the GAL4-UAS bipartite expression system. D42 GAL4 was used as an expression driver and UAS-TDP-43 YFP trasgenics were used as responder lines (Estes, et al., 2011, Hum. Mol. Genet).
Locomotor function. Locomotion was assessed using quantitative larval turning assays. Crosses were carried out at 25° C. and wandering third instar larvae were placed on a grape juice plate at room temperature. After a 30 second acclimation period, larvae were gently turned ventral side up. They were observed until they turned over (dorsal side up) and began making a forward motion. The time it took to complete this task was recorded for at least 20 larvae per genotype.
Statistical analyses. Student's t-tests were performed to determine statistical significance.

[1] = larvae expressing TDPG298S in motor neurons
[2] = larvae expressing TDPWT in motor neurons

| SMILES | locomotor function measured by larval turning assays | locomotor function [1] | locomotor function [2] |
| --- | --- | --- | --- |
| CCOC(=O)C1=CCN([S@@+]([O-])C(C)(C)C)[C@H]1c1ccsc1 [CH-III-31] | significant improvement of locomotor function | improves locomotor function | improves locomotor function |
| COc1cc2c(C(=O)C(F)(F)F)c(C(F)(F)F)[nH]c2cc1F [EV-3-298] | significant improvement of locomotor function | improves locomotor function | improves locomotor function |
| CCOC(=O)C1=CCN([S@+]([O-])C(C)(C)C)[C@@H]1C[C@@H](C)CCC=C(C)C [CH-I-108] | significant improvement of locomotor function | improves locomotor function | improves locomotor function |
